Measured values reported in patent US20240368096A1 (Enanta Pharmaceuticals, Inc., priority 2022, published 2024).

Test system: HBV
Assay: HBV infection in HepG2-NTCP cells (HBeAg AlphaLISA in supernatants)
Format: cell-based
Conditions: Hepatitis B virus, 192 h; HBV infection of HepG2-NTCP cells; HBeAg in supernatants at day 8 post infection; read-out: Cellular EC50
How it was run: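 Readout was day-8 supernatant HBeAg by AlphaLISA, with EC50 set against DMSO controls and binned A<0.1 μM, B 0.1-1 μM, C>1 μM. Compounds were added 2 h before HBV (2000 GE/cell, 4% PEG, 0.5% DMSO) to HepG2-NTCP A3 cells; from day 1 medium held 2.5% DMSO.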

Row | SMILES | EC50
1 | CC(C)CC1CN(C2CC2)c2cc(Cl)c(-c3cccc(C(=O)O)c3)cc2S(=O)(=O)N1C (stereo not drawn) [Example 327] | 100 to 1000 nM
2 | CN1[C@H](C2CCCCC2)CN(c2ccccc2)c2cc(Cl)c(-c3cc(C(=O)O)ncn3)cc2S1(=O)=O [Example 140, (R)-6-(7-chloro-3-cyclohexyl-2-methyl-1,1-dioxido-5-phenyl-2,3,4,5-tetrahydrobenzo[f][1,2,5]thiadiazepin-8-yl)pyrimidine-4-carboxylic acid] | 100 to 1000 nM
3 | COc1ccccc1Oc1cc2c(cc1-c1ccc(F)c(C(=O)O)c1)S(=O)(=O)N(C)[C@H](CC(C)C)CN2c1ccccc1 [Example 428] | < 100 nM
4 | CN1[C@H](C2CCCCC2)CN(c2ccccc2)c2cc(Cl)c(-c3cc(C(=O)O)c4ccccc4c3)cc2S1(=O)=O [Example 196] | 100 to 1000 nM
5 | CN1[C@H](C2CCCCC2)CN(c2ccccc2)c2cc(OCCCc3cscn3)c(-c3ccc(F)c(C(=O)O)c3)cc2S1(=O)=O [Example 347] | < 100 nM
6 | CC(=O)N1CCC(Oc2cc3c(cc2-c2ccc(F)c(C(=O)O)c2)S(=O)(=O)N(C)[C@H](C2CCCCC2)CN3c2ccccc2)CC1 [Example 395, (R)-5-(7-((1-acetylpiperidin-4-yl)oxy)-3-cyclohexyl-2-methyl-1,1-dioxido-5-phenyl-2,3,4,5-tetrahydrobenzo[f][1,2,5]thiadiazepin-8-yl)-2-fluorobenzoic acid] | 100 to 1000 nM
7 | CN1[C@H](C2CCCCC2)CN(c2ccccc2)c2cc(Cl)c(-c3ccc(Cl)c(C(=O)O)c3)cc2S1(=O)=O [Example 26] | < 100 nM
8 | CCCCC1CN(c2ccccc2)c2cc(CN3CCCCC3)c(-c3ccc(F)c(C(=O)O)c3)cc2S(=O)(=O)N1C (stereo not drawn) [Example 564] | 100 to 1000 nM
9 | CN1[C@H](C2CCCCC2)CN(c2ccccc2)c2cc(OCc3cscc3Cl)c(-c3cc(F)c(C(=O)O)s3)cc2S1(=O)=O [Example 494] | < 100 nM
10 | CN1[C@H](C2CCCCC2)CN(c2ccccc2)c2cc(C3CCN(C(=O)C(F)(F)F)C3)c(-c3ccc(F)c(C(=O)O)c3)cc2S1(=O)=O (stereo partly drawn) [Example 601] | 100 to 1000 nM
11 | CN1[C@H](C2CCCCC2)CN(c2ccccc2)c2cc(Cl)c(-c3cc(NC(=O)OC4CC4)c(C(=O)O)s3)cc2S1(=O)=O [Example 249] | < 100 nM
12 | CN1[C@H](C2CCCCC2)CN(c2ccccc2)c2cc(Oc3ccc(F)c(F)c3)c(-c3ccc(F)c(C(=O)O)c3)cc2S1(=O)=O [Example 404] | < 100 nM
13 | CCCCCCCC[C@@H]1CN(c2ccccc2)c2cc(Cl)c(-c3cc(F)c(F)c(C(=O)O)c3)cc2S(=O)(=O)N1C [Example 83] | > 1000 nM
14 | CN1[C@H](C2CC2)CN(c2ccccc2)c2cc(Cl)c(-c3ccc(F)c(C(=O)O)c3)cc2S1(=O)=O [Example 64, (R)-5-(7-chloro-3-cyclopropyl-2-methyl-1,1-dioxido-5-phenyl-2,3,4,5-tetrahydrobenzo[f][1,2,5]thiadiazepin-8-yl)-2-fluorobenzoic acid] | 100 to 1000 nM
15 | CN1[C@H](C2CCCCC2)CNc2cc(C3CCN(C(=O)OC(C)(C)C)CC3)c(-c3ccc(F)c(C(=O)O)c3)cc2S1(=O)=O [Example 584, (R)-5-(7-(1-(tert-butoxycarbonyl)piperidin-4-yl)-3-cyclohexyl-2-methyl-1,1-dioxido-2,3,4,5-tetrahydrobenzo[f][1,2,5]thiadiazepin-8-yl)-2-fluorobenzoic acid] | 100 to 1000 nM
16 | COc1cc2c(cc1-c1cccc(C(=O)O)c1)S(=O)(=O)N1Cc3ccccc3C1CN2c1ccccc1 (stereo not drawn) [Example 16] | 100 to 1000 nM
17 | CCCC[C@H]1CN(c2ccccc2)c2cc(N(C)c3ccc(F)cc3)c(-c3cccc(C(=O)O)c3)cc2S(=O)(=O)N1C [Example 541] | > 1000 nM
18 | CCCCCOC(=O)Nc1cc(-c2cc3c(cc2Cl)N(c2ccccc2)C[C@@H](C2CCCCC2)N(C)S3(=O)=O)sc1C(=O)O [Example 247] | < 100 nM
19 | CN1[C@H](COCc2ccccc2)CN(c2ccccc2)c2cc(Cl)c(-c3ccc(F)c(C(=O)O)c3)cc2S1(=O)=O [Example 102] | > 1000 nM
20 | CCCCC1CN(c2ccccc2)c2cc(CNc3ccccc3F)c(-c3ccc(F)c(C(=O)O)c3)cc2S(=O)(=O)N1C (stereo not drawn) [Example 565] | 100 to 1000 nM
21 | CN1[C@H](C2CCCCC2)CN(c2ccccc2)c2cc(OCC3CC(F)(F)C3)c(-c3ccc(F)c(C(=O)O)c3)cc2S1(=O)=O [Example 363] | < 100 nM
22 | COCCOc1cc2c(cc1-c1cc(NC(=O)OCC(C)C)c(C(=O)O)s1)S(=O)(=O)N(C)[C@H](C1CCCCC1)CN2c1ccccc1 [Example 516, (R)-5-(3-cyclohexyl-7-(2-methoxyethoxy)-2-methyl-1,1-dioxido-5-phenyl-2,3,4,5-tetrahydrobenzo[f][1,2,5]thiadiazepin-8-yl)-3-((isobutoxycarbonyl)amino)thiophene-2-carboxylic acid] | < 100 nM
23 | CC(C)C[C@@H]1CN(c2ccccc2)c2cc(OCC34CCCN3CCC4)c(-c3ccc(F)c(C(=O)O)c3)cc2S(=O)(=O)N1C [Example 450] | > 1000 nM
24 | CO[C@H]1C[C@H](N2C[C@@H](CC(C)C)N(C)S(=O)(=O)c3cc(-c4ccc(F)c(C(=O)O)c4)c(Oc4ccccc4F)cc32)C1 [Example 472] | 100 to 1000 nM
25 | CCC[C@@H]1CN(c2ccccc2)c2cc(Cl)c(-c3ccc(Cl)c(C(=O)O)c3)cc2S(=O)(=O)N1C [Example 48] | < 100 nM
26 | CSc1cc2c(cc1-c1cccc(C(=O)O)c1)S(=O)(=O)N1C[C@H](C(F)(F)F)C[C@@H]1CN2c1ccccc1 [Example 23] | > 1000 nM

Row | SMILES | EC50
27 | Cc1nnc(COc2cc3c(cc2-c2ccc(F)c(C(=O)O)c2)S(=O)(=O)N(C)[C@H](CC(C)C)CN3c2ccccc2)o1 [Example 457] | 100 to 1000 nM
28 | CN1[C@H](C2CCC2)CN(c2ccccc2)c2cc(Cl)c(-c3cccc(P(=O)(O)O)c3)cc2S1(=O)=O [Example 234] | 100 to 1000 nM
29 | CC(C)COC(=O)Nc1c(Cl)cc(-c2cc3c(cc2Cl)N(c2ccccc2)C[C@@H](C2CCCCC2)N(C)S3(=O)=O)cc1C(=O)O [Example 279] | < 100 nM
30 | Cc1cc(N2C[C@@H](C3CCCCC3)N(C)S(=O)(=O)c3cc(-c4ccc(F)c(C(=O)O)c4)c(Cl)cc32)ccn1 [Example 285] | > 1000 nM
31 | CN1[C@H](C2CCCCC2)CN(c2cccc(F)c2)c2cc(Cl)c(-c3ccc(F)c(C(=O)O)c3)cc2S1(=O)=O [Example 295] | 100 to 1000 nM
32 | CN1[C@H](C2CCCCC2)CN(c2ccccc2)c2cc(Oc3cccc(F)c3F)c(-c3ccc(F)c(C(=O)O)c3)cc2S1(=O)=O [Example 402] | < 100 nM
33 | Cc1ccc(Oc2cc3c(cc2-c2ccc(F)c(C(=O)O)c2)S(=O)(=O)N(C)[C@H](C2CCCCC2)CN3c2ccccc2)cc1F [Example 411] | < 100 nM
34 | CC(Oc1cc2c(cc1-c1ccc(F)c(C(=O)O)c1)S(=O)(=O)N(C)[C@H](C1CCCCC1)CN2c1ccccc1)c1ccsc1 (stereo partly drawn) [Example 337] | < 100 nM
35 | CC(C)C[C@@H]1CN(c2ccccc2)c2cc(OCC(F)(F)F)c(-c3ccc(F)c(C(=O)O)c3)cc2S(=O)(=O)N1C [Example 453] | < 100 nM
36 | CN1[C@H](C2CCC2)CN(c2ccccc2)c2cc(OC(C)(C)C)c(-c3ccc(F)c(C(=O)O)c3)cc2S1(=O)=O [Example 465] | 100 to 1000 nM
37 | CC(C)C[C@@H]1CN(c2ccccc2)c2cc(-c3ccc(F)cc3)c(-c3ccc(F)c(C(=O)O)c3)cc2S(=O)(=O)N1C [Example 573, (R)-2-fluoro-5-(7-(4-fluorophenyl)-3-isobutyl-2-methyl-1,1-dioxido-5-phenyl-2,3,4,5-tetrahydrobenzo[f][1,2,5]thiadiazepin-8-yl)benzoic acid] | < 100 nM
38 | CN1[C@H](C2CCCCC2)CN(c2ccccc2)c2cc(Oc3cccnc3)c(-c3ccc(F)c(C(=O)O)c3)cc2S1(=O)=O [Example 415] | 100 to 1000 nM
39 | CN1[C@H](C2CCCCC2)CN(c2ccccc2)c2cc(Cl)c(-c3ccc4c(c3)S(=O)(=O)NC4=O)cc2S1(=O)=O [Example 198] | 100 to 1000 nM
40 | COCCOc1cc2c(cc1-c1cc(NC(=O)OCC3CC(F)(F)C3)c(C(=O)O)s1)S(=O)(=O)N(C)[C@H](C1CCCCC1)CN2c1ccccc1 [Example 519] | < 100 nM
41 | CN1[C@H](C2CCCCC2)CN(c2ccccc2)c2cc(OCCc3ccsc3)c(-c3ccc(F)c(C(=O)O)c3)cc2S1(=O)=O [Example 346] | 100 to 1000 nM
42 | CC(C)C[C@@H]1CN(C23CC(C2)C3)c2cc(Oc3ccccc3F)c(-c3ccc(F)c(C(=O)O)c3)cc2S(=O)(=O)N1C [Example 469] | 100 to 1000 nM
43 | CC(=O)NS(=O)(=O)c1cccc(-c2cc3c(cc2Cl)N(c2ccccc2)C[C@@H](CC(C)C)N(C)S3(=O)=O)c1 [Example 220, (R)—N-((3-(7-chloro-3-isobutyl-2-methyl-1,1-dioxido-5-phenyl-2,3,4,5-tetrahydrobenzo[f][1,2,5]thiadiazepin-8-yl)phenyl)sulfonyl)acetamide] | 100 to 1000 nM
44 | CC(C)CC1CN(c2ccccc2)c2cc(Cl)c(-c3cc(Cl)cc(C(=O)O)c3)cc2S(=O)(=O)N1C (stereo not drawn) [Example 37] | 100 to 1000 nM
45 | CC(C)C[C@@H]1CN(c2ccccc2)c2cc(Cl)c(-c3cccc(S(C)(=N)=O)c3)cc2S(=O)(=O)N1C (stereo partly drawn) [Example 184] | > 1000 nM
46 | CN1[C@H](C2CCCCC2)CN(c2ccccc2)c2cc(Cl)c(-c3cc(NC(=O)OC4CCCC4)c(C(=O)O)s3)cc2S1(=O)=O [Example 251] | < 100 nM
47 | CC(C)C[C@@H]1CN(c2ccccc2)c2cc(Cl)c(-c3ccc(-c4ccoc4)c(C(=O)O)c3)cc2S(=O)(=O)N1C [Example 216] | 100 to 1000 nM
48 | CN1[C@H](C2CCCCC2)CN(c2ccccc2)c2cc(C3COC3)c(-c3ccc(F)c(C(=O)O)c3)cc2S1(=O)=O [Example 588] | 100 to 1000 nM
49 | CC(C)C[C@@H]1CN(c2ccccc2)c2cc(Oc3ccc(Cl)cc3)c(-c3ccc(F)c(C(=O)O)c3)cc2S(=O)(=O)N1C [Example 433] | 100 to 1000 nM
50 | CCCC[C@@H]1CN(c2ccccc2)c2cc(F)c(-c3ccc(N(C)C)c(C(=O)O)c3)cc2S(=O)(=O)N1C [Example 523] | 100 to 1000 nM
51 | CN1[C@H](CN2CCCC2)CN(c2ccccc2)c2cc(Cl)c(-c3ccc(F)c(C(=O)O)c3)cc2S1(=O)=O [Example 110] | > 1000 nM
